In patent publication US7241776B2, “Cyanoamidine P2X7 antagonists for the treatment of pain” (Abbott Laboratories, priority 2004, dated 2007):

Row | SMILES | melting point [°C]
1 | COc1ccc(CC(=O)NC(NC(Cc2cccnc2C)=NC#N)C(C)(C)C)cc1OC (stereo not drawn) [Example 21, N-(1-{[N-cyano-2-(2-methylpyridin-3-yl)ethanimidoyl]amino}-2,2-dimethylpropyl)-2-(3,4-dimethoxyphenyl)acetamide] | 164 to 165
2 | COc1ccc(CCCC(=O)NC(NC(Cc2ccccc2C)=NC#N)C(C)(C)C)cc1 (stereo not drawn) [Example 16, N-(1-{[N-cyano-2-(2-methylphenyl)ethanimidoyl]amino}-2,2-dimethylpropyl)-4-(4-methoxyphenyl)butanamide] | 171 to 172
3 | Cc1ccccc1CC(=NC#N)NC(NC(=O)CCCCc1ccccc1)C(C)(C)C (stereo not drawn) [Example 17, N-(1-{[N-cyano-2-(2-methylphenyl)ethanimidoyl]amino}-2,2-dimethylpropyl)-5-phenylpentanamide] | 151 to 152
4 | Cc1ccccc1CC(=NC#N)NC(NC(=O)CCCc1cccs1)C(C)(C)C (stereo not drawn) [Example 12, N-(1-{[N-cyano-2-(2-methylphenyl)ethanimidoyl]amino}-2,2-dimethylpropyl)-4-thien-2-ylbutanamide] | 154 to 155
5 | Cc1ncccc1CC(=NC#N)NC(NC(=O)Cc1ccc(Cl)cc1)C(C)(C)C (stereo not drawn) [Example 20, 2-(4-chlorophenyl)-N-(1-{[N-cyano-2-(2-methylpyridin-3-yl)ethanimidoyl]amino}-2,2-dimethylpropyl)acetamide] | 118 to 119
6 | N#CN=C(Cc1ccccc1F)N[C@@H]1CCc2ccccc21 [Example 50, N′-cyano-N-[(1R)-2,3-dihydro-1H-inden-1-yl]-2-(2-fluorophenyl)ethanimidamide] | 141 to 142
7 | Cc1ncccc1CC(=NC#N)N[C@@H]1CCCc2ccccc21 [Example 58, N′-cyano-2-(2-methylpyridin-3-yl)-N-[(1R)-1,2,3,4-tetrahydronaphthalen-1-yl]ethanimidamide] | 193 to 194
8 | Cc1ccccc1C(=NC#N)NC(NC(=O)Cc1ccc(Cl)cc1)C(C)(C)C (stereo not drawn) [Example 19, 2-(4-chlorophenyl)-N-(1-{[(cyanoimino)(2-methylphenyl)methyl]amino}-2,2-dimethylpropyl)acetamide] | 109 to 110
9 | COc1ccc(CCC(C)NC(Cc2ccccc2C)=NC#N)cc1 (stereo not drawn) [Example 35, N′-cyano-N-[3-(4-methoxyphenyl)-1-methylpropyl]-2-(2-methylphenyl)ethanimidamide] | 103 to 104
10 | Cc1ccccc1CC(=NC#N)NC(NC(=O)CF)C(C)(C)C (stereo not drawn) | 151 to 152
11 | CC[C@@H](NC(Cc1cccnc1C)=NC#N)c1ccccc1 [Example 57, N′-cyano-2-(2-methylpyridin-3-yl)-N-[(1R)-1-phenylpropyl]ethanimidamide] | 52 to 54
12 | Cc1ccccc1CC(=NC#N)NC(NC(=O)Cc1ccc2c(c1)OCCO2)C(C)(C)C (stereo not drawn) [Example 7, N-(1-{[N-cyano-2-(2-methylphenyl)ethanimidoyl]amino}-2,2-dimethylpropyl)-2-(2,3-dihydro-1,4-benzodioxin-6-yl)acetamide] | 180 to 181
13 | COc1ccc(CC(=O)NC(NC(=NC#N)c2cccc3ncccc23)C(C)(C)C)cc1OC (stereo not drawn) [Example 24, N-(1-{[(cyanoimino)(quinolin-5-yl)methyl]amino}-2,2-dimethylpropyl)-2-(3,4-dimethoxyphenyl)acetamide] | 203 to 205

Further lines, results first:

Row | melting point [°C] | SMILES
14 | 153 to 155 | COc1ccc(CC(=O)NC(NC(Cc2ccccc2C)=NC#N)C(C)(C)C)cc1OC (stereo not drawn) [Example 3, N-(1-{[N-cyano-2-(2-methylphenyl)ethanimidoyl]amino}-2,2-dimethylpropyl)-2-(3,4-dimethoxyphenyl)acetamide]
15 | 199 to 201 | COc1ccc(CC(=O)NC(NC(Cc2ccccc2C)=NC#N)C(C)(C)C)cc1 (stereo not drawn) [Example 4, N-(1-{[N-cyano-2-(2-methylphenyl)ethanimidoyl]amino}-2,2-dimethylpropyl)-2-(4-methoxyphenyl)acetamide]
16 | 183 to 185 | Cc1ccccc1CC(=NC#N)NC(NC(=O)Cc1ccc(Cl)cc1)C(C)(C)C (stereo not drawn) [Example 2, 2-(4-chlorophenyl)-N-(1-{[N-cyano-2-(2-methylphenyl)ethanimidoyl]amino}-2,2-dimethylpropyl)acetamide]
17 | 167 to 169 | Cc1ccccc1CC(=NC#N)NC(NC(=O)Cc1ccc2c(c1)OCO2)C(C)(C)C (stereo not drawn) [Example 5, 2-(1,3-benzodioxol-5-yl)-N-(1-{[N-cyano-2-(2-methylphenyl)ethanimidoyl]amino}-2,2-dimethylpropyl)acetamide]
18 | 172 to 173 | Cc1ccccc1CC(=NC#N)NC(NC(=O)Cc1ccc2ncccc2c1)C(C)(C)C (stereo not drawn) [Example 10, N-(1-{[N-cyano-2-(2-methylphenyl)ethanimidoyl]amino}-2,2-dimethylpropyl)-2-quinolin-6-ylacetamide]
19 | 201 to 202 | CSc1ccc(CC(=O)NC(NC(Cc2ccccc2C)=NC#N)C(C)(C)C)cc1 (stereo not drawn) [Example 15, N-(1-{[N-cyano-2-(2-methylphenyl)ethanimidoyl]amino}-2,2-dimethylpropyl)-2-[4-(methylthio)phenyl]acetamide]
20 | 182 to 183 | Cc1ccccc1CC(=NC#N)NC(NC(=O)Cc1ccccc1)C(C)(C)C (stereo not drawn) [Example 1, N-(1-{[N-cyano-2-(2-methylphenyl)ethanimidoyl]amino}-2,2-dimethylpropyl)-2-phenylacetamide]
21 | 84 to 86 | Cc1ccccc1CC(=NC#N)NC(NC(=O)Cc1cccnc1)C(C)(C)C (stereo not drawn) [Example 18, N-(1-{[N-cyano-2-(2-methylphenyl)ethanimidoyl]amino}-2,2-dimethylpropyl)-2-pyridin-3-ylacetamide]
22 | 178 to 179 | Cc1ccccc1CC(=NC#N)NC(NC(=O)Cc1ccc(F)c(F)c1)C(C)(C)C (stereo not drawn) [Example 13, N-(1-{[N-cyano-2-(2-methylphenyl)ethanimidoyl]amino}-2,2-dimethylpropyl)-2-(3,4-difluorophenyl)acetamide]
23 | 165 to 166 | Cc1ccccc1CC(=NC#N)NC(NC(=O)Cc1ccc2cccnc2c1)C(C)(C)C (stereo not drawn) [Example 11, N-(1-{[N-cyano-2-(2-methylphenyl)ethanimidoyl]amino}-2,2-dimethylpropyl)-2-quinolin-7-ylacetamide]
24 | 97 to 100 | Cc1ccccc1CC(=NC#N)NC(NC(=O)Cc1cccc2ccccc12)C(C)(C)C (stereo not drawn) [Example 9, N-(1-{[N-cyano-2-(2-methylphenyl)ethanimidoyl]amino}-2,2-dimethylpropyl)-2-(1-naphthyl)acetamide]
25 | 199 to 201 | Cc1ccccc1CC(=NC#N)NC(NC(=O)Cc1ccc(C#N)cc1)C(C)(C)C (stereo not drawn) [Example 6, N-(1-{[N-cyano-2-(2-methylphenyl)ethanimidoyl]amino}-2,2-dimethylpropyl)-2-(4-cyanophenyl)acetamide]
26 | 196 to 198 | CCSc1ccc(CC(=O)NC(NC(Cc2ccccc2C)=NC#N)C(C)(C)C)cc1 (stereo not drawn) [Example 14, N-(1-{[N-cyano-2-(2-methylphenyl)ethanimidoyl]amino}-2,2-dimethylpropyl)-2-[4-(ethylthio)phenyl]acetamide]
27 | 186 to 188 | CC(C)(C)C(NC(=O)Cc1ccc(Cl)cc1)NC(Cc1cccc2ncccc12)=NC#N (stereo not drawn) [Example 23, 2-(4-chlorophenyl)-N-(1-{[N-cyano-2-quinolin-5-ylethanimidoyl]amino}-2,2-dimethylpropyl)acetamide]
